Measured values published in patent US20060122153A1, “Antineoplastic ether lipid compounds with modifications at the sn-2 carbon” (priority 2003, published 2006).

Columns and labels:
Assay type in all cases: cell-based, human
Set-up in all cases: key: = means equivalent activity; + means that it appears to be significantly better (i.e., by ˜2x); < means it appears to be less active than ET18OCH3 (˜2x); a combination like =/+ or </+ means that activity is dependent upon the isomer; a combination like =/+ or </+ means that activity is dependent upon the isomer
786-0 = experiment: NCI growth inhibition screen, renal panel; conditions: 786-0, Renal; from GI50s
Method: (§1) Candidates deemed suitable for in vivo testing were then synthesized in large scale quantities and some of this material was sent to the NCI's Developmental Therapeutics Program for a battery of growth inhibitory studies against various human tumor cell lines (60 cell lines, 9 different panels). The remainder of the material was used to assess in vivo efficacy using murine tumor models. Additionally, studies were conducted on the lead candidates to discern mechanism of action with particular emphasis on these agents apoptotic ability as measured by caspase 3 activity. The details (materials and methods) for these various assays are described further in the following discussion.
(§2) Ten compounds were also sent to NCI's Drug Discovery Program for screening against numerous human tumor cell lines (9 panels total: renal ovarian, colon, CNS, non-small cell lung, leukemia, breast, melanoma, and prostate). The data are shown in FIGS. 2a-i which also include data regarding D- and L-ET-18-OCH3 (listed as L-EL and D-EL in the figures). Upon examining the data, one is struck by how 1R and 1a′S standout in comparison to the other compounds, especially for the renal, ovarian, colon, and CNS panels.

A498 = experiment: NCI growth inhibition screen, renal panel; conditions: from GI50s
Method: as §1, §2

TK-10 = experiment: NCI growth inhibition screen, renal panel; conditions: TK-10, Renal; from GI50s
Method: as §1, §2

A-549/ATCC = experiment: NCI growth inhibition screen, non-small cell lung panel; conditions: NS cell lung, from GI50s
Method: as §1, §2

EKVX = experiment: as above; conditions: NS cell lung, from GI50s
Method: as §1, §2

HOP-92 = experiment: as above; conditions: HOP-92, NS cell lung; from GI50s
Method: as §1, §2

NCI-H23 = experiment: as above; conditions: NCI-H23, NS cell lung; from GI50s
Method: as §1, §2

NCI-H332M = experiment: as above; conditions: NS cell lung, from GI50s
Method: as §1, §2

NCI-H460 = experiment: as above; conditions: NCI-H460, NS cell lung; from GI50s
Method: as §1, §2

CCRF-CEM = experiment: NCI growth inhibition screen, leukemia panel; conditions: from GI50s
Method: as §1, §2

HL-60 = experiment: NCI growth inhibition screen, leukemia panel; conditions: HL-60, Leukemia; from GI50s
Method: as §1, §2

MOLT-4 = experiment: NCI growth inhibition screen, leukemia panel; conditions: MOLT-4, Leukemia; from GI50s
Method: as §1, §2

| Structure (SMILES) | Performance as compared to ET-18-O—CH3 (786-0) | Performance as compared to ET-18-O—CH3 (A498) | Performance as compared to ET-18-O—CH3 (TK-10) | Performance as compared to ET-18-O—CH3 (A-549/ATCC) | Performance as compared to ET-18-O—CH3 (EKVX) | Performance as compared to ET-18-O—CH3 (HOP-92) | Performance as compared to ET-18-O—CH3 (NCI-H23) | Performance as compared to ET-18-O—CH3 (NCI-H332M) | Performance as compared to ET-18-O—CH3 (NCI-H460) | Performance as compared to ET-18-O—CH3 (CCRF-CEM) | Performance as compared to ET-18-O—CH3 (HL-60) | Performance as compared to ET-18-O—CH3 (MOLT-4) |
| --- | --- | --- | --- | --- | --- | --- | --- | --- | --- | --- | --- | --- |
| CCCCCCCCCCCCCCCCCCOC[C@@H](COP(=O)([O-])OCC[N+](C)(C)C)OS(C)(=O)=O [1a′S] | 0 | 0 | 0 | 0 | 0 | 0 | 0 | 0 | 0 | 0 | 0 | 0 |
| CCCCCCCCCCCCCCCCCCOCC(COP(=O)([O-])OCC[N+](C)(C)C)OS(C)(=O)=O (stereo not drawn) [Compound 1aR] | = | = | = | = | = | = | = | = | = | = | = | = |
